Among the test systems are A549 NSCLC; EKVX NSCLC; HCT-116 colon; IGROV1 ovarian; MALME-3M melanoma; NCI-H522 lung; SNB-19 CNS; SW-620 colon; U251 CNS; UACC-62 melanoma; HS 578T breast; MDA-MB-435; NCI/ADR-RES ovarian; MDA-N.
Common to all, as to assay: growth of human tumour cells (NCI), 48 h

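Compound exposure: 48 hours, 5 concentrations, 96-well plates. TGI: concentration producing complete growth inhibition.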

On to `C/C(=N/N)c1sc(-c2nc(C)c(/C(C)=N\N)s2)nc1C`, for which the TGI in the experiment on A549 NSCLC, in the experiment on EKVX NSCLC, with HCT-116 colon, with IGROV1 ovarian, in the experiment on MALME-3M melanoma and in the experiment on NCI-H522 lung was over 100 µM throughout. Moreover, the TGI in the experiment with SNB-19 CNS, with SW-620 colon, with U251 CNS and in the experiment on UACC-62 melanoma was over 100 µM throughout.

Turning to `C/C=C1/C(=Cc2[nH]c(C=c3[nH]/c(=C/C4=NC(=O)C(CC)=C4C)c(C)c3CCC(=O)O)c(CCC(=O)O)c2C)NC(=O)C1C` (centres undefined), the TGI in the experiment with A549 NSCLC is 27 µM; with EKVX NSCLC, over 50 µM; with HCT-116 colon, over 50 µM; in the experiment on IGROV1 ovarian, over 50 µM; in the experiment on MALME-3M melanoma it was 31.9 µM; in the experiment with NCI-H522 lung, 39.7 µM. Further, the TGI in the experiment with SNB-19 CNS is over 50 µM; in the experiment on SW-620 colon, over 50 µM; in the experiment with U251 CNS, over 50 µM; in the experiment on UACC-62 melanoma it was 20.3 µM.

For the compound `COc1ccc(NC(/C(C(=O)C(=O)/C=C(\O)c2ccccc2)=C(\O)c2ccccc2)c2ccc(OC)cc2)cc1` (centres undefined), the TGI in the experiment with A549 NSCLC was over 100 µM; with EKVX NSCLC, 50.9 µM; in the experiment on HCT-116 colon, over 100 µM; in the experiment with HS 578T breast, over 100 µM; in the experiment on IGROV1 ovarian it was over 100 µM; in the experiment with MALME-3M melanoma, 75.6 µM. In addition, the TGI in the experiment with MDA-MB-435 is 59.1 µM; in the experiment on NCI-H522 lung, 50.5 µM; with NCI/ADR-RES ovarian, over 100 µM; in the experiment with SNB-19 CNS, over 100 µM; with U251 CNS it was over 100 µM; with UACC-62 melanoma, over 100 µM.

Regarding `CN1CCN(Cc2ccccc2)CC1CC#N` (centres undefined), the TGI in the experiment with A549 NSCLC, in the experiment on EKVX NSCLC, in the experiment on HCT-116 colon, with IGROV1 ovarian, in the experiment with MALME-3M melanoma and in the experiment with MDA-MB-435 was over 100 µM each time. Moreover, the TGI in the experiment with MDA-N, in the experiment with NCI/ADR-RES ovarian, in the experiment with SNB-19 CNS, in the experiment on SW-620 colon, in the experiment on U251 CNS and in the experiment with UACC-62 melanoma was over 100 µM each time.

Turning to `CCOC(OC1=C(C#N)CCCC1)C(CC)[Se]c1ccccc1[N+](=O)[O-]` (centres undefined), the TGI is over 100 µM in the experiment on A549 NSCLC; 70 µM with EKVX NSCLC; 36.8 µM with HCT-116 colon; 72 µM in the experiment on IGROV1 ovarian; over 100 µM with MALME-3M melanoma; 30.9 µM in the experiment with NCI-H522 lung. For the same compound, the TGI with SNB-19 CNS came to 72.5 µM; in the experiment on U251 CNS, 30.9 µM; with UACC-62 melanoma, 47 µM.

Turning to `COc1cc([C@@H]2c3cc4c(cc3[C@@H](NC(=O)NO)[C@H]3COC(=O)[C@H]23)OCO4)cc(OC)c1O`, the TGI was over 100 µM in the experiment with EKVX NSCLC; over 100 µM in the experiment with HCT-116 colon; over 100 µM with IGROV1 ovarian; 5.13 µM with MDA-N; over 100 µM in the experiment with NCI-H522 lung; 93.1 µM in the experiment with NCI/ADR-RES ovarian. Also, the TGI with SNB-19 CNS, in the experiment with SW-620 colon and with U251 CNS was over 100 µM each time.

As to `COC1(C)CNCC(C)(C)NC(=O)C(C)(OC)CNCC(C)(C)NC1=O` (centres undefined), the TGI with A549 NSCLC, with EKVX NSCLC, in the experiment with HCT-116 colon, in the experiment with IGROV1 ovarian, with MALME-3M melanoma and in the experiment with NCI-H522 lung was over 100 µM in each case. Besides, the TGI in the experiment with SNB-19 CNS, in the experiment on SW-620 colon, with U251 CNS and in the experiment on UACC-62 melanoma was over 100 µM each time.

With `CCCCCCCCCCCCCCCCCCOCC(O)CO` (centres undefined), the TGI in the experiment with A549 NSCLC was 5.32 µM; in the experiment on EKVX NSCLC, over 14.1 µM; with HCT-116 colon, over 25 µM; with IGROV1 ovarian it was over 23.7 µM; in the experiment with MALME-3M melanoma it was over 21.1 µM; in the experiment on NCI-H522 lung, 20.9 µM. The TGI was over 25 µM in the experiment with NCI/ADR-RES ovarian; over 25 µM in the experiment with SNB-19 CNS; over 17 µM in the experiment on SW-620 colon; over 25 µM with U251 CNS; over 25 µM in the experiment with UACC-62 melanoma.

Regarding `CC(C)=CCOc1ccc(-c2coc3cc4c(c(O)c3c2=O)C=CC(C)(C)O4)cc1`, the TGI is over 100 µM in the experiment on A549 NSCLC; over 100 µM in the experiment on EKVX NSCLC; over 100 µM with HCT-116 colon; over 100 µM with IGROV1 ovarian; 38.9 µM with NCI-H522 lung; over 100 µM with SNB-19 CNS. Also, the TGI with SW-620 colon and with U251 CNS was over 100 µM in each case.

For `O=C1C2C3C=C4c5ccccc5N(c5ccccc5)C4([C@@H]2C(=O)N1c1ccc(F)cc1)[C@H]1C(=O)N(c2ccc(F)cc2)C(=O)[C@@H]31` (some centres undefined), the TGI in the experiment on A549 NSCLC, with EKVX NSCLC, in the experiment with MALME-3M melanoma, in the experiment on NCI-H522 lung, in the experiment on SNB-19 CNS and in the experiment with SW-620 colon was over 100 µM throughout. In the experiment on U251 CNS, this compound gave a TGI of over 100 µM.

`Cc1ccc(O)c(C(c2cc(C)ccc2O)c2cc([N+](=O)[O-])ccc2O)c1`: the TGI in the experiment with A549 NSCLC is 31.2 µM; with EKVX NSCLC, 32.3 µM; in the experiment on HCT-116 colon, 56.1 µM; with HS 578T breast, 37.9 µM; with IGROV1 ovarian it was 24.4 µM; in the experiment on MDA-MB-435 it was 45.3 µM. Further, the TGI in the experiment with NCI-H522 lung was found to be 30 µM; with NCI/ADR-RES ovarian, 66.8 µM; in the experiment with SW-620 colon, 67 µM; in the experiment on U251 CNS, 46.4 µM; in the experiment with UACC-62 melanoma it was 36.6 µM.

Consider `CC(=O)OCC1OC(n2c(O)c(N=NC(N)=S)c3ccc([N+](=O)[O-])cc32)C(OC(C)=O)C1OC(C)=O` (centres undefined), for which the TGI in the experiment with A549 NSCLC is over 100 µM; with EKVX NSCLC it was over 100 µM; in the experiment on HCT-116 colon, 29.5 µM; with IGROV1 ovarian, over 100 µM; with MALME-3M melanoma, over 100 µM; in the experiment on NCI-H522 lung, 31.4 µM. The TGI with SNB-19 CNS was over 100 µM; in the experiment on SW-620 colon it was over 100 µM; in the experiment on U251 CNS, 87.6 µM; with UACC-62 melanoma, 27.6 µM.

Turning to `CC(O)C1OC(n2ccc(=O)[nH]c2=O)CC1n1cncn1` (centres undefined), the TGI in the experiment with A549 NSCLC, with EKVX NSCLC, with HCT-116 colon, in the experiment with IGROV1 ovarian, in the experiment with MALME-3M melanoma and with NCI-H522 lung was over 100 µM each time. In addition, the TGI in the experiment with SNB-19 CNS, with SW-620 colon, in the experiment on U251 CNS and in the experiment with UACC-62 melanoma was over 100 µM in each case.

Values taken from PubChem BioAssay (NCI).
